Values of other authors as cited in patent US5827682A, “Two-step conversion of vegetable protein isoflavone conjugates to aglucones” (Protein Technologies International, Inc., priority 1996, dated 1998).

Experiments:
[1] = test system: human prostate cancer cells; conditions: title of cited article
[2] = test system: Epidermal Growth Factor Receptor; conditions: title of cited article
[3] = test system: human breast cancer cells; conditions: title of cited article; independence from estrogen receptors and the multi-drug resistance gene

COc1ccc(-c2coc3cc(O)cc(O)c3c2=O)cc1 [Biochanin A, biochanin A]
Inhibition of the growth of human prostate cancer cells [1]: Inhibit the Growth of Human Prostate Cancer Cells | Inhibition of epidermal growth factor receptor tyrosine autophosphorylation [2]: not Epidermal Growth Factor Receptor Tyrosine Autophosphorylation

O=c1c(-c2ccc(O)cc2)coc2cc(O)cc(O)c12 [Genistein, genistein]
Inhibition of the growth of human prostate cancer cells [1]: Inhibit the Growth of Human Prostate Cancer Cells | Inhibition of the growth of human breast cancer cells [3]: Inhibition of the Growth of Human Breast Cancer Cells | Inhibition of epidermal growth factor receptor tyrosine autophosphorylation [2]: not Epidermal Growth Factor Receptor Tyrosine Autophosphorylation
